Measured values as given in publication PMC8158513, “Bio-Distribution and Pharmacokinetics of Topically Administered γ-Cyclodextrin Based Eye Drops in Rabbits” (Pharmaceuticals, 2021).
Each block holds one compound with its values, some of them ahead of it.

Columns and labels:
[1] = Blood-plasma PK after topical eye drop administration; conditions: for concentration at 6 h: Plasma concentration at 6 h
Protocol: (§1) A total number of 59 rabbits were included in this part of the study. All rabbits were consecutively assigned to one of the two study groups. […] Group 2 animals were dosed with 0.15% candesartan eye drops, while 23 rabbits received a single dose and 5 rabbits received multiple doses of the eye drops. Single dose rabbits of both groups were additionally randomized to one of five euthanasia time points: 0.5 h ± 5 min, 1.5 h ± 5 min, 3 h ± 10 min, 6 h ± 15 min or 12 h ± 30 min after instillation. In all animals, 35 μL of the study drug were instilled in the conjunctival sac of the right eye with a calibrated pipette using single-use dispensers. Single dose animals were instilled only once while multiple dose animals were instilled twice daily for a total of 5 days. In all animals only the right eye was treated. To assess drug concentrations, eyes were enucleated at the end of the study period. Before enucleation, rabbits were euthanized in deep anesthesia (ketamine 60 mg/kg, xylazine 16 mg/kg, s.c.) by an intravenous over-dose of pentobarbitone sodium (300 mg/kg i.v.) and enucleation was performed immediately after euthanasia. Single dose animals were enucleated at one of the five specified time-points. Multiple dose animals were euthanized 1 h ± 30 min after the last drug administration. From each animal both eyes were enucleated and stored at −80 °C. For separation of the different ocular tissues, the eyeball was removed from −80 °C storage and corneal tissue, aqueous humor, vitreous humor and retinal/choroidal tissue were dissected. The tissues were collected separately in individual tubes, which were weighed and then stored at −80 °C.
A venous blood sample of 2 mL was collected from the saphenous vein before the (first) drug administration and prior to euthanasia to determine systemic drug exposure at baseline and after drug administration. The blood was centrifuged for 10 min at a temperature of 10 °C and a speed of 3000 rpm. The resulting supernatant was separated and stored in a tube at −80 °C until further processing.
(§2) Both, the eye-tissue and plasma samples were shipped to Nucro-Technics (Nucro-Technics, 2000 Ellesmere Road, Unit #16, Scarborough, ON, Canada) for quantitative analysis. For this purpose, a new liquid chromatography/tandem mass spectrometry method for simultaneous quantification of candesartan and irbesartan in rabbit eye tissues including cornea, aqueous humor, vitreous body and retina was developed. The exact method and validation are described in detail elsewhere.
(§3) This study was designed to assess pharmacokinetics and local tolerability, no formal sample size calculation has been performed. Descriptive statistics was used for all quantitative data to describe drug concentrations after the single and multiple dosing in the different tissues. […] For pharmacokinetic calculations Phoenix WinNonlin 8.1 (Certara, Princeton, NJ, USA) was used, and the statistical analysis was done using CSS Statistica 6.0 (Tulsa, OK, USA).
(§4) To facilitate calculation of the PK parameters, a plausibility check was performed and values below the lower limit of quantification (BLOQ; plasma: <0.05 ng/mL; tissue: <5 ng/g (irbesartan), <2 ng/g (candesartan)) were set to 0. […] All baseline plasma sample values were set to zero.

[2] = Multiple-dose ocular bio-distribution (twice daily for 5 days, tissues 1 h after last dose); conditions: New Zealand White, rabbit, topical, 35 µL
Protocol: as §1, with “Single dose animals were enucleated at one of the five specified time-points. Multiple dose animals were euthanized 1 h ± 30 min after the last drug administration. From each animal both eyes were enucleated and stored at −80 °C. For separation of the different ocular tissues, the eyeball was removed from −80 °C storage and corneal tissue, aqueous humor, vitreous humor and retinal/choroidal tissue were dissected. The tissues were collected separately in individual tubes, which were weighed and then stored at −80 °C.” left out
as §2, with “The exact method and validation are described in detail elsewhere.” left out
This study was designed to assess pharmacokinetics and local tolerability, no formal sample size calculation has been performed. Descriptive statistics was used for all quantitative data to describe drug concentrations after the single and multiple dosing in the different tissues. […]
To facilitate calculation of the PK parameters, a plausibility check was performed and values below the lower limit of quantification (BLOQ; plasma: <0.05 ng/mL; tissue: <5 ng/g (irbesartan), <2 ng/g (candesartan)) were set to 0. […]

[3] = molecular target: angiotensin II receptor (AT1 subtype); conditions: cited from earlier work
[4] = Pre-formulation studies (γCD complexation, physicochemical parameters)
Protocol: Pre-formulation studies with different candesartan (0.1–0.2%) and irbesartan (1.0–2.0%) concentrations were performed to find the optimal drug concentration for the animal experiments.

[5] = Single-dose ocular bio-distribution and pharmacokinetics of topical γCD based eye drops (LC-MS/MS of ocular tissues); conditions: for Cmax / Tmax: topical or ocular
Protocol: as §1, §2, §3, §4

[6] = New Zealand White, rabbit, plasma, topical or ocular, 35 µL
[7] = New Zealand White, rabbit, in vivo, topical or ocular
[8] = New Zealand White, rabbit, in vivo

- Cmax [1, 6]: 4.32 ± 1.04 ng/mL
- Tmax [1, 6]: 30 min
- half-life [1, 6]: 584 min
- concentration at 1 h after last dose ([1]; New Zealand White, rabbit, plasma, topical, 35 µL, Mean plasma levels (Cmean) after the last dose, multiple doses twice daily for 5 days): 4.78 ± 1.48 ng/mL
- Plasma AUC ([1]; single topical administration, AUC 0 h-12 h): 8.75 (ng/mL)*h
- concentration at 1 h after last dose ([2]; retinal tissue, Retinal tissue Cmean in molar units, multiple dose, assuming molar weight 428.54 g/mol irbesartan, 440.45 g/mol candesartan): 82 nM
- concentration at 1 h after last dose ([2]; retinal/choroidal tissue, treated study eye, Cmean retinal tissue (RT), SE, multiple doses twice daily 5 days, 1 h ± 30 min after last dose, study eye, mean ± SD): 36 ± 10 ng/g
- concentration at 1 h after last dose ([2]; vitreous humor, treated study eye, Cmean vitreous humor (VH), SE, multiple doses, 1 h after last dose, study eye): < 2 ng/g
- Complexing efficiency of the γCD complex ([4]; compared with irbesartan): lower
- Cmax ([5]; New Zealand White, rabbit, aqueous humor, treated study eye, 35 µL, Cmax SE, aqueous humor (AH), single dose, study eye, mean ± SD, also published separately [20]): 30 ± 14 ng/g
- Tmax ([5]; New Zealand White, rabbit, aqueous humor, treated study eye, 35 µL, Tmax SE, aqueous humor (AH), single dose, study eye, also published separately [20]): 180 min
- Cmax ([5]; New Zealand White, rabbit, aqueous humor, untreated control eye, 35 µL, Cmax CE, aqueous humor (AH), single dose, control eye, also published separately [20]): < 2 ng/g
- Cmax ([5]; New Zealand White, rabbit, corneal tissue, treated study eye, 35 µL, Cmax SE, corneal tissue (CT), single dose, study eye, mean ± SD, also published separately [20]): 3500 ± 801 ng/g
- Tmax ([5]; New Zealand White, rabbit, corneal tissue, treated study eye, 35 µL, Tmax SE, corneal tissue (CT), single dose, study eye, also published separately [20]): 90 min
- Cmax ([5]; New Zealand White, rabbit, corneal tissue, untreated control eye, 35 µL, Cmax CE, corneal tissue (CT), single dose, control eye, mean ± SD, also published separately [20]): 2 ± 4 ng/g
- Tmax ([5]; New Zealand White, rabbit, corneal tissue, untreated control eye, 35 µL, Tmax CE, corneal tissue (CT), single dose, control eye, also published separately [20]): 30 min
- Cmax ([5]; New Zealand White, rabbit, retinal tissue, 35 µL, Retinal tissue single dose Cmax in molar units, single dose, assuming molar weight 428.54 g/mol irbesartan, 440.45 g/mol candesartan): 144 nM
- Cmax ([5]; New Zealand White, rabbit, retinal/choroidal tissue, treated study eye, 35 µL, Cmax SE, retinal(choroidal) tissue (RT), single dose 35 μL topical, mean ± SD): 63 ± 39 ng/g
- Tmax ([5]; New Zealand White, rabbit, retinal/choroidal tissue, treated study eye, 35 µL, Tmax SE, retinal tissue (RT), single dose, study eye): ≤ 30 min
- half-life ([5]; New Zealand White, rabbit, retinal/choroidal tissue, treated study eye, topical, 35 µL): 323 min
- Cmax ([5]; New Zealand White, rabbit, retinal/choroidal tissue, untreated control eye, 35 µL, Cmax CE, retinal tissue (RT), single dose, mean ± SD): < 2 ng/g
- Tmax ([5]; New Zealand White, rabbit, retinal/choroidal tissue, untreated control eye, 35 µL, Tmax CE, retinal tissue (RT), single dose, control eye): 30 min
- Cmax ([5]; New Zealand White, rabbit, vitreous humor, treated study eye, 35 µL, Cmax SE, vitreous humor (VH), single dose, study eye, mean ± SD): < 2 ng/g
- Tmax ([5]; New Zealand White, rabbit, vitreous humor, treated study eye, 35 µL, Tmax SE, vitreous humor (VH), single dose, study eye): 30 min
- Cmax ([5]; New Zealand White, rabbit, vitreous humor, untreated control eye, 35 µL, Cmax CE, vitreous humor (VH), single dose, control eye): < 2 ng/g
- Time of maximum retinal drug concentration after single administration ([5]; single dose, retina): 30 min
- Retinal tissue AUC ([5]; single dose, study eye, AUC 0 h-12 h): 210 ng·h/g
- Cmax SE, vitreous humor (VH) ([5]; single dose, study eye, mean ± SD): <2 ng/g
SMILES: CCOc1nc2cccc(C(=O)O)c2n1Cc1ccc(-c2ccccc2-c2nnn[nH]2)cc1 [candesartan]
- IC50 [3]: 0.4 nM
- Cmax CE, vitreous humor (VH) ([5]; single dose, control eye): below the respective lower quantification limit

- concentration at 6 h ([1]; New Zealand White, rabbit, in vivo, mean of the other concentrations (outlier excluded)): 1.16 ng/mL
- concentration at 6 h ([1]; New Zealand White, rabbit, in vivo, single value defined as outlier): 65.2 ng/mL
- Cmax [1, 7]: 5.64 ± 4.08 ng/mL
- Tmax [1, 7]: 30 min
- half-life [1, 7]: 1060 min
- Plasma AUC ([1]; rabbit, in vivo, topical or ocular): 17.64 (ng/mL)*h
- Affinity for the γCD cavity ([4]; among telmisartan, olmesartan, irbesartan and candesartan): highest affinity
- Retinal tissue AUC [5, 8]: 941 ng·h/g
- Retinal tissue AUC relative to the corresponding candesartan AUC [5, 8]: around 4.5 times
- Time of maximum retinal drug concentration after single administration [5, 8]: 30 min
- concentration at 0.5 h [5, 8]: 14 ± 16 ng/g
- half-life [5, 8]: 199 min
- Cmax ([5]; New Zealand White, rabbit, in vivo, Cmax CE, aqueous humor (AH)): < 5 ng/g
- Cmax ([5]; New Zealand White, rabbit, in vivo, Cmax CE, corneal tissue (CT)): 49 ± 85 ng/g
- Cmax ([5]; New Zealand White, rabbit, in vivo, Cmax CE, retinal tissue (RT)): 23 ± 34 ng/g
- Cmax ([5]; New Zealand White, rabbit, in vivo, Cmax CE, vitreous humor (VH)): < 5 ng/g
- Cmax ([5]; New Zealand White, rabbit, in vivo, Cmax SE, aqueous humor (AH)): 121 ± 69 ng/g
- Cmax ([5]; New Zealand White, rabbit, in vivo, Cmax SE, corneal tissue (CT)): 3660 ± 988 ng/g
- Cmax ([5]; New Zealand White, rabbit, in vivo, Cmax SE, retinal(choroidal) tissue (RT)): 251 ± 142 ng/g
- Cmax ([5]; New Zealand White, rabbit, in vivo, Cmax SE, vitreous humor (VH)): 14 ± 16 ng/g
- Tmax ([5]; New Zealand White, rabbit, in vivo, Tmax CE, aqueous humor (AH)): 30 min
- Tmax ([5]; New Zealand White, rabbit, in vivo, Tmax CE, corneal tissue (CT)): 90 min
- Tmax ([5]; New Zealand White, rabbit, in vivo, Tmax CE, retinal tissue (RT)): 30 min
- Tmax ([5]; New Zealand White, rabbit, in vivo, Tmax CE, vitreous humor (VH)): 30 min
- Tmax ([5]; New Zealand White, rabbit, in vivo, Tmax SE, aqueous humor (AH)): 180 min
- Tmax ([5]; New Zealand White, rabbit, in vivo, Tmax SE, corneal tissue (CT)): 90 min
- Tmax ([5]; New Zealand White, rabbit, in vivo, Tmax SE, retinal tissue (RT)): ≤ 30 min
- Tmax ([5]; New Zealand White, rabbit, in vivo, Tmax SE, vitreous humor (VH)): 30 min
SMILES: CCCCC1=NC2(CCCC2)C(=O)N1Cc1ccc(-c2ccccc2-c2nnn[nH]2)cc1 [irbesartan]
- IC50 [3]: 1.3 nM
- Cmax CE, vitreous humor (VH) ([5]; rabbit, in vivo): below the respective lower quantification limit
